Measurements: a compilation of properties of binary mixtures (doi:10.1016/j.molliq.2017.09.070)

Test: xn = mol fraction of the nth substance listed
Conditions: 100 kPa; for viscosity: 298.1 K

CCCC[N+]1(C)CCCC1.O=S(=O)([N-]S(=O)(=O)C(F)(F)F)C(F)(F)F + CC1COC(=O)O1
Conditions	electrical conductivity [S/m]
296.9 K, x1 = 0.4	0.781
297.1 K, x1 = 0.6	0.543
297.1 K, x1 = 0.9	0.347
297.3 K, x1 = 0.2	1
299.8 K, x1 = 0.9	0.366
299.9 K, x1 = 0.2	1.02
299.9 K, x1 = 0.6	0.571
302.5 K, x1 = 0.2	1.04
302.5 K, x1 = 0.4	0.835
302.6 K, x1 = 0.6	0.593
302.6 K, x1 = 0.8	0.444
302.6 K, x1 = 0.9	0.387
305.3 K, x1 = 0.4	0.864
305.4 K, x1 = 0.2	1.07
305.4 K, x1 = 0.6	0.615
305.4 K, x1 = 0.8	0.471
305.4 K, x1 = 0.9	0.417
307.9 K, x1 = 0.4	0.882
307.9 K, x1 = 0.8	0.501
308.1 K, x1 = 0.9	0.437
308.2 K, x1 = 0.6	0.639
308.4 K, x1 = 0.2	1.11
310.9 K, x1 = 0.4	0.901
310.9 K, x1 = 0.9	0.461
311.1 K, x1 = 0.2	1.13
311.1 K, x1 = 0.6	0.666
313.5 K, x1 = 0.9	0.487
313.7 K, x1 = 0.6	0.683
316.3 K, x1 = 0.4	0.963
316.3 K, x1 = 0.8	0.578
316.5 K, x1 = 0.6	0.704
316.5 K, x1 = 0.9	0.508
319 K, x1 = 0.4	0.988
319.2 K, x1 = 0.2	1.19
319.2 K, x1 = 0.8	0.603
319.2 K, x1 = 0.9	0.529
321.9 K, x1 = 0.4	1.01
322.1 K, x1 = 0.2	1.2
322.1 K, x1 = 0.8	0.628
322.3 K, x1 = 0.6	0.746
324.6 K, x1 = 0.2	1.22
324.7 K, x1 = 0.8	0.652
324.9 K, x1 = 0.4	1.02
324.9 K, x1 = 0.6	0.771
324.9 K, x1 = 0.9	0.59
327.2 K, x1 = 0.9	0.615
327.4 K, x1 = 0.2	1.24
327.4 K, x1 = 0.4	1.05
327.4 K, x1 = 0.8	0.677
330.1 K, x1 = 0.4	1.07
330.3 K, x1 = 0.6	0.811
330.4 K, x1 = 0.8	0.701
332.9 K, x1 = 0.8	0.721
333 K, x1 = 0.2	1.27
333 K, x1 = 0.4	1.09
333 K, x1 = 0.9	0.661
333.2 K, x1 = 0.6	0.828
335.5 K, x1 = 0.9	0.683
335.7 K, x1 = 0.2	1.3
335.9 K, x1 = 0.6	0.842
335.9 K, x1 = 0.8	0.74
336 K, x1 = 0.4	1.12
338.5 K, x1 = 0.4	1.13
338.5 K, x1 = 0.9	0.706
338.7 K, x1 = 0.6	0.864
341.4 K, x1 = 0.4	1.16
341.4 K, x1 = 0.9	0.734
341.6 K, x1 = 0.2	1.32
343.8 K, x1 = 0.8	0.804
344 K, x1 = 0.2	1.33
344 K, x1 = 0.4	1.16
344.2 K, x1 = 0.9	0.752
344.4 K, x1 = 0.6	0.908
347 K, x1 = 0.2	1.34
347 K, x1 = 0.6	0.935
347 K, x1 = 0.8	0.835
347 K, x1 = 0.9	0.781
349.5 K, x1 = 0.8	0.849
349.9 K, x1 = 0.2	1.36
349.9 K, x1 = 0.9	0.808
350.1 K, x1 = 0.6	0.951

Conditions	viscosity [mPa·s]
x1 = 0.2	5.5
x1 = 0.4	13.7
x1 = 0.6	29.8
x1 = 0.8	41.3
x1 = 0.9	48.1

CC1COC(=O)O1 (stereo unspecified) + CCCC[n+]1ccn(C)c1.O=S(=O)([N-]S(=O)(=O)C(F)(F)F)C(F)(F)F
Conditions	viscosity [mPa·s]
x2 = 0.2	7.5
x2 = 0.4	11.9
x2 = 0.6	20
x2 = 0.8	31.4
x2 = 0.9	35.4
